Experimental data as given in patent US12491188B2, “Small molecule PARG inhibitors and methods of use thereof” (Board of Regents, The University of Texas System, priority 2019, dated 2025).

Assays:
Format in all cases: cell-based, human
PC3 cells = assay: PAR / γH2AX immuno-staining and high content imaging after IR; settings: PC3, 2 h treatment, 7 Gy, 1 h recovery
Method: FIGS. 13a-g show PARGi sensitizes cells to ionizing radiation damage. (FIG. 13a) A low-resolution fixed intensity image-montage of the total cell numbers 3×(3×3) imaged per experimental group. A high level of PAR accumulation and γH2AX foci formation in cells exposed to PARGi. PC3 cells treated DMSO or PARG inhibitors (2120 or 2131) for 2 hours, irradiated 7Gy, recovered for 1 hour were fixed and immuno-stained with Poly(ADP)-Ribose (PAR, green), γH2AX (red) and Hoechst (blue) antibodies. Cells were analyzed with quantitative high content imaging. (FIGS. 13b-e) Quantitative analysis of PAR intensity (FIG. 13b), γH2AX intensities (FIG. 13c), the number of cells showing PAR/γH2AX co-localizations (FIG. 13d) and nucleus count for the total number of cells analyzed for each group (FIG. 13e). […] Cells were treated with 2131 for an hour followed by 7Gy ionizing radiation then allowed to recover for 2 h before total cell-lysate preparation and immunoblotting with anti-PAR (upper panel) followed by anti-PARG (middle) and Anti-PCNA (lower) as controls. […] Anti-PAR (green), Anti-γH2AX (red) and Hoechst 33342 (blue). Scale bar 25 μm.
Immuno-staining and imaging. PC3 cells were grown to 75% confluence in 24-well 25 μm film bottom Eppendorf black cell Imaging plates (0030741005), treated with either DMSO or designated inhibitors for 2 hours, irradiated 7 Gy X-ray and allowed to recover for an hour before fixing with 4% (wt/vol) paraformaldehyde, pH 8.0. All subsequent steps were performed at pH8.0. Cells were washed 6-7 times with PBS, permeabilized 0.5% Triton X-100 in PBS on ice for 20 min, blocked overnight with PBS/5% Goat serum/3% BSA/0.5% Triton X-100. Cells were incubated with primary antibody 1:250 dilution in PBS/5% BSA/0.5% Triton X-100 overnight at 4° C. Following 6× wash with PBS pH 8.0, cells were exposed to fluorescence labelled secondary antibody diluted 1:500 in PBS/5% BSA/0.5% Triton X-100 for 1 hour at room temperature. Following 6-7× PBS washes, cells were fixed again with 4% PFA at room temperature for 20 min. […]

[1] = tested on: PARP inhibitor resistant SUM149PT cells; assay: PAR and γH2AX high content imaging in PARPi resistant cells; settings: 10 μM, 2 hours, 3 Gy IR; four PARPi resistant clones and wild type
Method: PARPi resistant SUM149PT cells clone 6, 10, 11, 18 together with the wild type (WT) were treated with 10 μM JA2131 for 2 hours, irradiated 3Gy ionizing radiation and then fixed, immunofluorescence labelled for PAR and γH2AX. High content imaging showing specific accumulation of PAR and DNA damage induction observed with γH2AX signal in cells treated with PARGi. (Right) Immunoblotting of total cell-lysates of PARP1i resistant SUM149PT cells showing no change in the PARG (upper panel) and p53 (middle panel) protein expression level. Anti-actin was used as loading control (bottom panel).
PARG was evaluated as a therapeutic option for patients who become PARP1 inhibitor resistant. PARP1 inhibitor resistant SUM149PT triple negative breast cancer cell-lines were generated with 100 nM talazoparib for 5 constitutive days and then with 15-50 nM talazoparib until resistant cells grew into clones. The resulting resistant cell clones were propagated and expanded to generate PARP inhibitor resistant SUM149PT derivative cells that no longer responded to PARP1i treatment. It was then investigated whether the PARP resistant breast cancer cells would respond to the PARG inhibitors. Four PARPi resistant SUM149PT cell clones together with wild type cells were treated with JA2131. PAR accumulation and γH2AX foci formation were analyzed by high content imaging (FIG. 21).

[2] = tested on: PC3, MDA-MB-231 and MCF-7 cell lines; assay: Clonogenic cell-survival assay; settings: 10 μM, 2 hours, 3 Gy IR, 2-3 weeks
Method: FIGS. 14a-c show selective inhibition of PARG by xanthine derivative JA2131. (FIG. 14a) PARG knockdown MDA-MB-231 cells were treated with 5 μM JA2131 or PDD for two hours, lysed and total lysates were immunoblotted for anti-PAR (upper panel) followed by anti-PARG (upper middle), anti-PARP1 (lower middle) and anti-actin (bottom). (FIG. 14b) Clonogenic assay radiation dose determination for MDA-MB-231, MCF-7 and PC3 cells. 500 cells were exposed to indicated dose of radiation and colonies were allowed to form for each cell-lines. The surviving colonies from each group were counted and normalized against non-irradiated. The results of three independent experiments are shown here. Error bars=SEM. (FIG. 14c) Clonogenic survival assays of PC3, MDA MB231 and MCF-7 cells treated with PARGi. 500 cells were treated with either DMSO or 10 μM JA2131 for 2 hours, irradiated 3Gy ionizing radiation and grown for approximately 2-3 weeks, then colonies were fixed methanol and stained with crystal violet. Cells were analysed as above. The results of three independent experiments are shown here. Error bars=SEM.
Cell culture. […] Cells were fixed with methanol (100%), stained with crystal violet and analyzed using a GelCount instrument (Oxford Optronix Ltd). […]

With `O=C1C(Cl)=C(Cl)C(Cl)(Cl)C(Cl)=C1Cl` [JA2131] the “cells showing colocalization of PAR and γH2AX foci” value (PC3 cells) was “at least 50%”, the “increase in PAR accumulation following IR in comparison to untreated cells” value (PC3 cells) was 20 fold and the “γH2AX staining and foci formation, PARGi-treated vs control cells” value (PC3 cells) was greater than 10 fold. The “PAR accumulation and γH2AX staining” value [1] was “increased PAR accumulation as well as γH2AX staining” and the colony formation [2] was “inhibits colony formation in all three cell lines”.
